# Results reported in patent US20250213707A1, “COMPOUND FOR INCREASING EFFICACY OF ONCOLYTIC VIRUSES” (ABLEVIA BIOTECH GMBH, priority 2022, published 2025).
# Test system: IgG from human donors (anti-AAV antibodies)
# Assay: Screen for anti-AAV antibodies in human sera, 2452 linear 15-amino-acid AAV peptides on microarrays (Table 1)
# Type: binding
# Set-up: key to group II: X: the deduplicated aggregate of the respective top 25 peptide hits for each donor was compiled and designated as group II; key to group III: X: the deduplicated aggregate of the respective top 50 peptide hits for each donor was compiled and designated as group III
# Conditions: linear 15-amino-acid AAV peptides, IgG binding by fluorescence; for group II: X = peptide belongs to the deduplicated aggregate of the top 25 peptide hits for each donor; for group III: X = peptide belongs to the deduplicated aggregate of the top 50 peptide hits for each donor
# Procedure: 2452 linear peptides derived from the sequences of 16 different AAVs and with a sequence length of 15 amino-acids each were synthesized.
# Samples obtained from human donors were screened for antibodies against these AAV-derived peptides immobilized on microarrays. To this end, IgG was prepared from blood obtained from the human donors by protein G purification. Each IgG sample was incubated with the peptide microarrays and Ig binding signals were detected by fluorescence. All antibody binding signals to the peptides on the arrays were background subtracted and ranked for each sample and a deduplicated aggregate of the respective top 250 peptide hits for each donor with the corresponding protein sequence of origin (as obtained from UniProt or other sources) was compiled (designated as group IV). Further, the deduplicated aggregate of the respective top 50 peptide hits for each donor was compiled and designated as group III. Further, the deduplicated aggregate of the respective top 25 peptide hits for each donor was compiled and designated as group II. Finally, the deduplicated aggregate of the respective top 10 peptide hits for each donor was compiled and designated as group I.
# Altogether, group I contains 110 distinct peptide hits (assigned to the corresponding AAV vectors in Table 1), group II contains 289 distinct peptide hits, group III contains 428 distinct peptide hits and group IV contains 1271 distinct peptide hits. Evidently, group I is a subset of group II which in turn is a subset of group III which in turn is a subset of group IV. Groups I-IV correspond to the top 4.4%, […], 17.5% and 51.8%, respectively, of all peptides screened.
substance,measurement,value
281 (SKPSTSSDAEAGPSG; REGION 1..15: note = peptide derived from viral capsid protein) [compound 281],group II,X
same,group III,X
282 (FITQYSTGQVTVEME; REGION 1..15: note = peptide derived from viral capsid protein) [compound 282],group II,X
same,group III,X
283 (EFLGLEAGPPKPKPN; REGION 1..15: note = peptide derived from viral capsid protein) [compound 283],group II,X
same,group III,X
284 (NVGGQMATNNQSSTT; REGION 1..15: note = peptide derived from viral capsid protein) [compound 284],group II,X
same,group III,X
285 (PSKMLRTGNNFEFTY; REGION 1..15: note = peptide derived from viral capsid protein) [compound 285],group II,X
same,group III,X
286 (VLEPFGLVEEGAKTA; REGION 1..15: note = peptide derived from viral capsid protein) [compound 286],group II,X
same,group III,X
287 (AQPASSLGADTMSAG; REGION 1..15: note = peptide derived from viral capsid protein) [compound 287],group II,X
same,group III,X
288 (VQDSTTTIANNLTST; REGION 1..15: note = peptide derived from viral capsid protein) [compound 288],group II,X
same,group III,X
289 (YLEGNMLITSESETQ; REGION 1..15: note = peptide derived from viral capsid protein) [compound 289],group II,X
same,group III,X
290 (NVDFAVNTDGTYSEP; REGION 1..15: note = peptide derived from viral capsid protein) [compound 290],group III,X
291 (KDNVDYSSVMLTSEE; REGION 1..15: note = peptide derived from viral capsid protein) [compound 291],group III,X
292 (HDDEERFFPSSGVLM; REGION 1..15: note = peptide derived from viral capsid protein) [compound 292],group III,X
293 (SQMLRTGNFEFSYFE; REGION 1..15: note = peptide derived from viral capsid protein) [compound 293],group III,X
294 (GDSESVPDPQPIGEP; REGION 1..15: note = peptide derived from viral capsid protein) [compound 294],group III,X
295 (DNPYLRYHADAEFQE; REGION 1..15: note = peptide derived from viral capsid protein) [compound 295],group III,X
296 (NTPVPADPPTTFNQA; REGION 1..15: note = peptide derived from viral capsid protein) [compound 296],group III,X
297 (DSLVNPGVAMATHDD; REGION 1..15: note = peptide derived from viral capsid protein) [compound 297],group III,X
298 (PLGLVESPVKTAPGK; REGION 1..15: note = peptide derived from viral capsid protein) [compound 298],group III,X
299 (SRTQSTGGTAGTQQL; REGION 1..15: note = peptide derived from viral capsid protein) [compound 299],group III,X
300 (TFNQAKLASFITQYS; REGION 1..15: note = peptide derived from viral capsid protein) [compound 300],group III,X
301 (STTLSQNNNSNFAWT; REGION 1..15: note = peptide derived from viral capsid protein) [compound 301],group III,×
311 (QGVLPGMVWQDRDVY; REGION 1..15: note = peptide derived from viral capsid protein) [compound 311],group III,X
312 (NEADAAALEHDKAYD; REGION 1..15: note = peptide derived from viral capsid protein) [compound 312],group III,X
313 (QGCLPPFPADVFMVP; REGION 1..15: note = peptide derived from viral capsid protein) [compound 313],group III,X
314 (EHDKAYDRQLDSGDN; REGION 1..15: note = peptide derived from viral capsid protein) [compound 314],group III,X
315 (PFPADVFMVPQYGYL; REGION 1..15: note = peptide derived from viral capsid protein) [compound 315],group III,X
316 (EPVKTAPGKKRPVEH; REGION 1..15: note = peptide derived from viral capsid protein) [compound 316],group III,X
317 (HKDDEEKFFPQSGVL; REGION 1..15: note = peptide derived from viral capsid protein) [compound 317],group III,X
318 (DKGEPVNEADAAALE; REGION 1..15: note = peptide derived from viral capsid protein) [compound 318],group III,X
319 (EQYGSVSTNLQRGNR; REGION 1..15: note = peptide derived from viral capsid protein) [compound 319],group III,X
320 (GPPPPKPAERHKDDS; REGION 1..15: note = peptide derived from viral capsid protein) [compound 320],group III,X
321 (IEKVMITDEEEIRTT; REGION 1..15: note = peptide derived from viral capsid protein) [compound 321],group III,X
322 (KSVNVDFTVDTNGVY; REGION 1..15: note = peptide derived from viral capsid protein) [compound 322],group III,X
323 (RPVEHSPVEPDSSSG; REGION 1..15: note = peptide derived from viral capsid protein) [compound 323],group III,X
324 (SDIRDQSRNWLPGPC; REGION 1..15: note = peptide derived from viral capsid protein) [compound 324],group III,X
325 (DNNEGADGVGNSSGN; REGION 1..15: note = peptide derived from viral capsid protein) [compound 325],group III,X
326 (PVATEQYGSVSTNLQ; REGION 1..15: note = peptide derived from viral capsid protein) [compound 326],group III,X
327 (QVKEVTQNDGTTTIA; REGION 1..15: note = peptide derived from viral capsid protein) [compound 327],group III,X
328 (STVQVFTDSEYQLPY; REGION 1..15: note = peptide derived from viral capsid protein) [compound 328],group III,X
329 (DADSVPDPQPLGQPP; REGION 1..15: note = peptide derived from viral capsid protein) [compound 329],group III,X
330 (DSGDNPYLKYNHADA; REGION 1..15: note = peptide derived from viral capsid protein) [compound 330],group III,X
331 (DSLVNPGPAMASHKD; REGION 1..15: note = peptide derived from viral capsid protein) [compound 331],group III,X
332 (ISSQSGASNDNHYFG; REGION 1..15: note = peptide derived from viral capsid protein) [compound 332],group III,X
333 (MITDEEEIRTTNPVA; REGION 1..15: note = peptide derived from viral capsid protein) [compound 333],group III,X
334 (RQWWKLKPGPPPPKP; REGION 1..15: note = peptide derived from viral capsid protein) [compound 334],group III,X
335 (VKEVTQNDGTTTIAN; REGION 1..15: note = peptide derived from viral capsid protein) [compound 335],group III,X
336 (VTQNDGTTTIANNLT; REGION 1..15: note = peptide derived from viral capsid protein) [compound 336],group III,X
337 (ADNNEGADGVGNSSG; REGION 1..15: note = peptide derived from viral capsid protein) [compound 337],group III,X
338 (PLGLVEEPVKTAPGK; REGION 1..15: note = peptide derived from viral capsid protein) [compound 338],group III,X
